The target in one assay is T1, CDK2/Cyclin E2 (Homo sapiens, UniProt P24941).
T1 construct: Recombinant protein complex CDK2/Cyclin E2, expressed from insect cell, was purchased from ProQinase
As to the kind of experiment: CDK2/CyclinE2 Enzymatic Activity Assay (TR-FRET). The settings on record: ATP 1 mM final, read-out: CDK2_E1 IC50. Type of assay: biochemical. The procedure, abridged: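 Recombinant insect-cell CDK2/Cyclin E2 (1 nM) phosphorylated ULight-4E-BP1 (50 nM) with 1 mM ATP in HEPES pH 7.4 buffer, after 20 min compound preincubation; MgCl2 (10 mM) started the 45 min reaction at 37° C. Europium anti-phospho-4E-BP1 TR-FRET read; 9-dose IC50 by 4-parameter fit.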
In general terms: In TR-FRET formats the signal depends on donor and acceptor labels being close together.

Another assay has as its target T2, CDK4/Cyclin D1 (Homo sapiens, UniProt P11802).
T2 construct: purchased ProQinase; host or cells: insect cell
As to the kind of experiment: CDK4/CyclinD1 Enzymatic Activity Assay (TR-FRET). The assay is classed as biochemical. The settings on record: ATP 2 mM final, read-out: CDK4_D1 IC50. A digest of the protocol: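 Insect-cell-expressed CDK4/Cyclin D1 (1 nM) with ULight-4E-BP1 (100 nM) and 2 mM ATP in HEPES pH 7.4; 9-dose 3-fold compound series preincubated 20 min, reaction started with 10 mM MgCl2, 45 min at 37° C. Europium anti-P-4E-BP1 TR-FRET read; IC50 from 4-parameter Hill fit.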

A further assay deals with OVCAR3 p-RB. As to the kind of experiment: pRB ICW Assay in OVCAR3 Cells. Type of assay: cell-based. The settings on record: Homo sapiens, OVCAR-3, incubated with compound for 2 hours. A digest of the protocol:
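In-Cell Western on OVCAR3: phospho-RB antibody signal with DRAQ5 counterstain read at 700 and 800 nm after fixation. Compounds were applied for 2 h at 37° C. as 9-point ½-log dilutions in duplicate; 10 μM reference compound defined full inhibition.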

T2 sequence (P11802 whole entry): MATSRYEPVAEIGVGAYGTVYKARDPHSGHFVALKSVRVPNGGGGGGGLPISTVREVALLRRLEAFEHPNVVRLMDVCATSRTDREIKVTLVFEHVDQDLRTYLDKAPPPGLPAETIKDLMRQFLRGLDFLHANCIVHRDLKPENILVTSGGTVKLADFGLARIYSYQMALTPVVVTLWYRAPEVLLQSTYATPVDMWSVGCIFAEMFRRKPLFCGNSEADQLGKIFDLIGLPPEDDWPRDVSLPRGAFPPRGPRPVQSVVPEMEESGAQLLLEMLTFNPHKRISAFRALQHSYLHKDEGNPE
T2 sequence (P24385 whole entry partner): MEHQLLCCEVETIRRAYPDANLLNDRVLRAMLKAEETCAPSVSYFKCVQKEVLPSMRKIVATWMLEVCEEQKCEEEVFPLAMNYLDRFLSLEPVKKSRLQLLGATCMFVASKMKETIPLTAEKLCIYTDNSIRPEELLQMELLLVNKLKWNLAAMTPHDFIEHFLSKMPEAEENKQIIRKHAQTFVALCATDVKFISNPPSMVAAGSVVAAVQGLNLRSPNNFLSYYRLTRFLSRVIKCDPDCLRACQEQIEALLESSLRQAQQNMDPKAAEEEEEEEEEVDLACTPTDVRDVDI

On to `Cc1sc(-c2nc(N[C@H]3CCN(S(=O)(=O)c4cn(C)cn4)C[C@H]3C)ncc2C(F)(F)F)cc1C#N` [Example 53, 2-methyl-5-(2-(((3R,4S)-3-methyl-1-((1-methyl-1H-imidazol-4-yl)sulfonyl)piperidin-4-yl)amino)-5-(trifluoromethyl)pyrimidin-4-yl)thiophene-3-carbonitrile], for which the IC50 – broadly, the concentration needed to halve the response being measured – at CDK2/Cyclin E2 is at most 100 nM; on CDK4/Cyclin D1 it was 100 to 500 nM; in the assay with OVCAR3 p-RB, over 500 nM.
For `Cc1sc(-c2nc(N[C@H]3CCN(S(C)(=O)=O)C[C@H]3C)ncc2C(F)(F)F)cc1C#N` [Example 54, 2-methyl-5-(2-(((3R,4S)-3-methyl-1-(methylsulfonyl)piperidin-4-yl)amino)-5-(trifluoromethyl)pyrimidin-4-yl)thiophene-3-carbonitrile], in that order: at most 100 nM, over 500 nM and over 500 nM.
Regarding `Cc1sc(-c2nc(NC3CCN(S(=O)(=O)c4c[nH]cn4)CC3)ncc2C(F)(F)F)cc1C#N` [Example 55, 5-(2-((1-((1H-imidazol-4-yl)sulfonyl)piperidin-4-yl)amino)-5-(trifluoromethyl)pyrimidin-4-yl)-2-methylthiophene-3-carbonitrile], the IC50 on CDK2/Cyclin E2 is at most 100 nM; at CDK4/Cyclin D1 it was at most 100 nM; in the assay with OVCAR3 p-RB, 100 to 500 nM.
Consider `CC(O)c1cnc(-c2nc(NC3CCN(S(=O)(=O)c4cn[nH]c4)CC3)ncc2C(F)(F)F)s1` (stereo not drawn) [Example 56, 1-(2-(2-((1-((1H-pyrazol-4-yl)sulfonyl)piperidin-4-yl)amino)-5-(trifluoromethyl)pyrimidin-4-yl)thiazol-5-yl)ethan-1-ol], for which the concentration for half-maximal inhibition (IC50) on CDK2/Cyclin E2, at CDK4/Cyclin D1 and with OVCAR3 p-RB was at most 100 nM in each case.
Consider `CC(O)c1cnc(-c2nc(NC3CCN(S(=O)(=O)c4c[nH]cn4)CC3)ncc2C(F)(F)F)s1` (stereo not drawn) [Example 57, 1-(2-(2-((1-((1H-imidazol-4-yl)sulfonyl)piperidin-4-yl)amino)-5-(trifluoromethyl)pyrimidin-4-yl)thiazol-5-yl)ethan-1-ol], for which the IC50 on CDK2/Cyclin E2, on CDK4/Cyclin D1 and with OVCAR3 p-RB was at most 100 nM throughout.
Consider `Cn1cc(S(=O)(=O)N2CCC(Nc3ncc(C(F)(F)F)c(-c4nccs4)n3)CC2)cn1` [Example 58, N-(1-((1-methyl-1H-pyrazol-4-yl)sulfonyl)piperidin-4-yl)-4-(thiazol-2-yl)-5-(trifluoromethyl)pyrimidin-2-amine], for which the IC50 on CDK2/Cyclin E2 is at most 100 nM; on CDK4/Cyclin D1, at most 100 nM; in the assay on OVCAR3 p-RB, 100 to 500 nM.
As for `Cn1cnc(S(=O)(=O)N2CCC(Nc3ncc(C(F)(F)F)c(-c4nccs4)n3)CC2)c1` [Example 59, N-(1-((1-methyl-1H-imidazol-4-yl)sulfonyl)piperidin-4-yl)-4-(thiazol-2-yl)-5-(trifluoromethyl)pyrimidin-2-amine], the half-maximal inhibitory concentration (IC50) at CDK2/Cyclin E2, at CDK4/Cyclin D1 and with OVCAR3 p-RB was at most 100 nM throughout.
On to `Cn1cnc(S(=O)(=O)N2CCC(Nc3ncc(C(F)(F)F)c(-c4ncc(C(O)C(F)(F)F)s4)n3)CC2)c1` (stereo not drawn) [Example 60, 2,2,2-trifluoro-1-(2-(2-((1-((1-methyl-1H-imidazol-4-yl)sulfonyl)piperidin-4-yl)amino)-5-(trifluoromethyl)pyrimidin-4-yl)thiazol-5-yl)ethan-1-ol], for which the IC50 at CDK2/Cyclin E2, on CDK4/Cyclin D1 and in the assay on OVCAR3 p-RB was at most 100 nM throughout.
In the case of `Cn1cc(S(=O)(=O)N2CCC(Nc3ncc(C(F)(F)F)c(-c4ncc(C(O)C(F)(F)F)s4)n3)CC2)cn1` (stereo not drawn) [Example 61, 2,2,2-trifluoro-1-(2-(2-((1-((1-methyl-1H-pyrazol-4-yl)sulfonyl)piperidin-4-yl)amino)-5-(trifluoromethyl)pyrimidin-4-yl)thiazol-5-yl)ethan-1-ol], the IC50 on CDK2/Cyclin E2, on CDK4/Cyclin D1 and in the assay on OVCAR3 p-RB was at most 100 nM throughout.

(Values after patent publication US20240150340A1, “CDK Inhibitors And Their Use As Pharmaceuticals” (Prelude Therapeutics Incorporated, priority 2022, published 2024).)
